Results reported in PubChem BioAssay (NCI).
Several values for one entry are separate records, joined by “and”; a condition that tells them apart may be missing. Identical values can stand only once.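 Method: 48-hour compound exposure of cells in 96-well plates, five concentrations, linear interpolation of endpoints. Abbreviation: GI50, concentration required for 50% inhibition of growth. TGI: total growth inhibition.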

How the values were obtained:
Test in all cases: DTP human tumour cell line panel, 48 h
OVCAR-5 ovarian = system: OVCAR-5 ovarian
SK-MEL-2 melanoma = system: SK-MEL-2 melanoma
UO-31 renal = system: UO-31 renal
IGROV1 ovarian = system: IGROV1 ovarian
OVCAR-4 ovarian = system: OVCAR-4 ovarian
SN12C renal = system: SN12C renal
OVCAR-3 ovarian = system: OVCAR-3 ovarian
T-47D breast = system: T-47D breast
NCI-H226 lung = system: NCI-H226 lung
HCT-15 colon = system: HCT-15 colon

SMILES | GI50 (OVCAR-5 ovarian) | TGI (OVCAR-5 ovarian) | GI50 (SK-MEL-2 melanoma) | TGI (SK-MEL-2 melanoma) | GI50 (UO-31 renal) | TGI (UO-31 renal) | GI50 (IGROV1 ovarian) | TGI (IGROV1 ovarian) | GI50 (OVCAR-4 ovarian) | TGI (OVCAR-4 ovarian) | GI50 (SN12C renal) | TGI (SN12C renal) | GI50 (OVCAR-3 ovarian) | TGI (OVCAR-3 ovarian) | GI50 (T-47D breast) | TGI (T-47D breast) | GI50 (NCI-H226 lung) | TGI (NCI-H226 lung) | GI50 (HCT-15 colon) | TGI (HCT-15 colon)
O=C1OCC2=C1C(c1ccc(Cl)c(Cl)c1)c1cc3c(cc1N2CCO)OCCO3 (centres undefined) | 0.736 µM | > 33.2 µM | 0.137 µM | 1.11 µM | 0.256 µM | 30.6 µM | 0.542 µM | > 33 µM | 0.382 µM | > 50 µM | 0.688 µM | 20 µM | 0.127 µM | 0.351 µM | 0.282 µM | > 50 µM | 0.29 µM | 7.71 µM | 0.245 µM | > 50 µM
COC(=O)C1(C)CCc2c(OC)ccc(OC)c2C1=O (centres undefined) | – | > 100 µM | – | > 100 µM | – | > 100 µM | – | > 100 µM | – | > 100 µM | – | > 100 µM | – | > 100 µM | – | – | – | > 100 µM | – | > 100 µM
COc1cc2c(c(OC)c1OC)-c1ccc(SC)c(=O)cc1C(NC(=O)c1ccccc1)CC2 (centres undefined) | – | 58.7 µM | – | < 0.215 µM | – | > 68.1 µM | – | 49.6 µM | – | 22.2 µM | – | 52.6 µM | – | < 0.01 µM | – | > 100 µM | – | – | – | –
Cc1ccc(-c2nnc(-c3nn(-c4ccccc4)c4nc5ccccc5nc34)o2)cc1 | – | > 100 µM | – | 39 µM | – | 39 µM | – | 41.7 µM | – | 8.79 µM | – | > 100 µM | – | 28.7 µM | – | – | – | 30 µM | – | > 100 µM
O=C1NC(=O)C(N2C(=O)c3ccccc3C2=O)CC1O (centres undefined) | > 100 µM | > 100 µM | > 100 µM | > 100 µM | > 100 µM | > 100 µM | > 100 µM | > 100 µM | > 100 µM | > 100 µM | > 100 µM | > 100 µM | > 100 µM | > 100 µM | > 100 µM | > 100 µM | > 100 µM | > 100 µM | > 100 µM | > 100 µM
O=C(/C=C/c1cc2ccccc2[nH]c1=O)/C=C/c1cc2ccccc2[nH]c1=O | > 49 µM | > 100 µM | > 24.7 µM | > 30.6 µM | > 100 µM | > 100 µM | > 19.7 µM | > 49.3 µM | 19.2 µM | > 100 µM | 12.6 µM | > 86.6 µM | 12.1 µM | > 63.5 µM | 11.6 µM | > 100 µM | 14.9 µM | 38.1 µM | 9.96 µM | > 100 µM
O=C(NN1C(=O)CSC12CCCCC2)c1[nH]c2ccc(Br)cc2c1-c1ccccc1 | 31.3 µM | 95.5 µM | 36.2 µM | > 100 µM | 22.4 µM | 68.9 µM | 11.3 µM | 28.6 µM | 13.3 µM | 39.6 µM | 17.6 µM | 34.9 µM | 15.5 µM | 29.4 µM | 27.9 µM | > 100 µM | 23 µM | 55.7 µM | 17.1 µM | 39.7 µM
Nc1nc(OCc2ccccc2)c2[nH]cnc2n1 | 52.7 µM and 42.6 µM | 241 µM and 240 µM | 25.1 µM | 177 µM | 17.1 µM | 82 µM and 82.2 µM | 25.3 µM and 9.01 µM | 93.3 µM and 271 µM and 34.4 µM | 41.2 µM and 43.4 µM | 365 µM and 528 µM | 29.4 µM and 26.4 µM | 400 µM and 193 µM | 33.9 µM | 400 µM and 284 µM | 24.9 µM and 23.2 µM | 205 µM | 36.8 µM and 16.3 µM | 119 µM and 82 µM | 25.5 µM and 21.7 µM | 400 µM and 222 µM
COc1cc2c(cc1OCCCn1c(-c3ccccn3)nc3ccccc31)N=C[C@@H]1CCCN1C2=O | 3.41 µM | 9.34 µM | 1.52 µM | 3.94 µM | 0.474 µM | 2.59 µM | 1.96 µM | 4.89 µM | 3.39 µM | > 42.6 µM | 3.05 µM | 15.1 µM | 2.18 µM | 5.11 µM | 2.14 µM | 8.13 µM | 0.8 µM | 6.9 µM | 2.5 µM | 9.92 µM
C=CC(=O)Nc1cccc(Oc2nc(Nc3ccc(N4CCN(C)CC4)cc3)nc3ccsc23)c1 | 3.61 µM and 8.09 µM | > 10 µM and 25.2 µM | 2.85 µM and 2.49 µM | 8.48 µM and 5 µM | 0.962 µM and 1.11 µM | 3.69 µM and 3.38 µM | 1.42 µM and 1.75 µM | 3.05 µM and 4.58 µM | 2.74 µM and 3.23 µM | > 10 µM and 11.4 µM | 1.58 µM and 1.61 µM | 4.35 µM and 4.61 µM | 2.11 µM and 1.88 µM | 9.29 µM and 4.79 µM | 9.72 µM and 5.29 µM | > 10 µM and 27 µM | 8.23 µM and 10.4 µM | > 10 µM and 36.9 µM | 2.32 µM and 2.54 µM | 9.5 µM and 10.6 µM
CC(=O)Nc1ccc(SC#N)c2c(NC(C)=O)cccc12 | – | > 100 µM | – | > 100 µM | – | > 100 µM | – | > 100 µM | – | > 100 µM | – | > 100 µM | – | > 100 µM | – | – | – | > 100 µM | – | > 100 µM
CC(=O)/C=C/c1cn(C(=O)OC(C)(C)C)c2ccc(Br)cc12 | 25.6 µM | 53.9 µM | 20.9 µM | 54.6 µM | 10.3 µM | 51.9 µM | 15.9 µM | 39.5 µM | 25.7 µM | > 100 µM | 13.8 µM | 36.4 µM | 13 µM | 28.3 µM | 17.4 µM | 54.4 µM | 11.7 µM | 28.7 µM | 20.9 µM | > 100 µM
COc1cc2nc(N3CCCC3)nc(NCCc3ccccc3)c2cc1OC | 1.72 µM | 3.21 µM | 2.02 µM | 3.91 µM | 1.29 µM | 2.69 µM | 1.51 µM | 2.95 µM | 1.76 µM | 3.71 µM | 1.87 µM | 3.79 µM | 1.96 µM | 3.68 µM | 1.94 µM | 4.41 µM | 11.4 µM | 34 µM | 1.67 µM | 3.26 µM
Cc1c(/C=N/N=C/c2[nH]c(C(=O)OC(C)(C)C)c(C)c2C)[nH]c(C(=O)OC(C)(C)C)c1C | – | > 100 µM | – | > 100 µM | – | > 100 µM | – | > 100 µM | – | > 100 µM | – | > 100 µM | – | > 100 µM | – | – | – | > 100 µM | – | > 100 µM
